# Tests used:
# [1] = Light stability of SnET2 solid forms under visible light irradiation (XRPD and HPLC); type: physicochemical; conditions: for XRPD Result / Impurity Levels by HPLC Peak 1 (photooxidized product) / Impurity Levels by HPLC Peak 2 / Impurity Levels by HPLC Peak 3: solid
# Description: Comparative stability studies were performed on crystalline Form I, crystalline Form II, disordered Form II and the amorphous form. Light stability studies were carried out in a closed, black 30×16×12 inch cabinet containing two 24-inch, 20-watt fluorescent bulbs as the light source. The samples were placed approximately 10 inches from the bulbs. Each sample consisted of approximately 30-mg of SnET2 in a 1-dram vial. Samples were removed at the time intervals indicated in Table 11, analyzed by XRPD and HPLC.
# [2] = Relative thermodynamic stability of crystalline forms (slurry interconversion, XRPD); type: physicochemical; conditions: slurrying in dichloromethane, acetone and mixtures, ambient or 50° C.
# Description: Unsolvated, anhydrous, polymorphic forms of a compound differ in their free energies. A set of polymorphs may be ranked in order of thermodynamic stability under a given set of pressure and temperature conditions. […] Production of the stable form is said to occur under thermodynamic conditions. […] Phys. Chem. 22:306 (1897)]. […] Kinetic and thermodynamic conditions differ in the amount of energy utilized. While the absolute amount depends on the compound in question, relatively speaking, kinetic conditions involve lower temperatures and shorter reaction times while thermodynamic conditions involve higher temperatures and longer reaction times.
# Under subdued lighting, a slurry containing a 1:1 mixture of SnET2 crystalline Form I and SnET2 crystalline Form II (100-200 mg each) in 1-3 mL of a solvent, listed in Table 13 below, was agitated in a tightly-capped tube at ambient temperature or at 50° C. The undissolved solid was collected by filtration and found, by XRPD analysis, to be crystalline Form II.
# [3] = visible light (two 20-watt fluorescent bulbs, approx. 10 inches), 0 days
# [4] = visible light irradiation, 0 days
# [5] = visible light irradiation, 2 days
# [6] = visible light irradiation, 4 days
# [7] = visible light irradiation, 6 days
# [8] = visible light irradiation, 8 days
# [9] = visible light irradiation, 19 days
# [10] = visible light irradiation, 29 days
"XRPD Result [1, 3]","Impurity Levels by HPLC Peak 1 (photooxidized product) [1, 4]","Impurity Levels by HPLC Peak 2 [1, 4]","Impurity Levels by HPLC Peak 3 [1, 4]","Impurity Levels by HPLC Peak 1 (photooxidized product) [1, 5]","Impurity Levels by HPLC Peak 2 [1, 5]","Impurity Levels by HPLC Peak 3 [1, 5]","XRPD Result [1, 5]","Impurity Levels by HPLC Peak 1 (photooxidized product) [1, 6]","Impurity Levels by HPLC Peak 2 [1, 6]","Impurity Levels by HPLC Peak 3 [1, 6]","XRPD Result [1, 6]","Impurity Levels by HPLC Peak 1 (photooxidized product) [1, 7]","Impurity Levels by HPLC Peak 2 [1, 7]","Impurity Levels by HPLC Peak 3 [1, 7]","XRPD Result [1, 7]","Impurity Levels by HPLC Peak 1 (photooxidized product) [1, 8]","Impurity Levels by HPLC Peak 2 [1, 8]","Impurity Levels by HPLC Peak 3 [1, 8]","XRPD Result [1, 8]",Substance,other results
Amorphous,1.62,0.70,0.00,6.60,0.71,0.03,Amorphous,9.78,0.73,0.15,Amorphous,1.84,0.11,0.23,Amorphous,12.66,0.70,0.27,Amorphous,Tin ethyl etiopurpurin [Amorphous],"rate of photoproduct formation by HPLC ([1]; exposed to visible light, compared with the other solid forms): produced more rapidly in the amorphous form than any other form; Impurity Levels by HPLC Peak 1 (photooxidized product) [1, 9]: 14.13; Impurity Levels by HPLC Peak 2 [1, 9]: 0.73; Impurity Levels by HPLC Peak 3 [1, 9]: 0.38; XRPD Result [1, 9]: Amorphous; Impurity Levels by HPLC Peak 1 (photooxidized product) [1, 10]: 18.72; Impurity Levels by HPLC Peak 2 [1, 10]: 0.76; Impurity Levels by HPLC Peak 3 [1, 10]: 0.38; XRPD Result [1, 10]: Amorphous"
Crystalline,0.00,0.23,0.00,0.44,0.23,0.04,Crystalline,0.56,0.24,0.09,Crystalline,0.82,0.21,0.10,Crystaliine,0.96,0.21,0.15,Crystalline,Tin ethyl etiopurpurin [Crystalline Form II],"Impurity Levels by HPLC Peak 1 (photooxidized product) [1, 9]: 1.12; Impurity Levels by HPLC Peak 2 [1, 9]: 0.18; Impurity Levels by HPLC Peak 3 [1, 9]: 0.14; XRPD Result [1, 9]: Crystalline; Impurity Levels by HPLC Peak 1 (photooxidized product) [1, 10]: 1.68; Impurity Levels by HPLC Peak 2 [1, 10]: 0.17; Impurity Levels by HPLC Peak 3 [1, 10]: 0.11; XRPD Result [1, 10]: Crystalline; relative (thermodynamic) stability of crystalline forms [2]: thermodynamically more stable form; relative (thermodynamic) stability of crystalline forms ([2]; listed as crystalline Form II): more stable than crystalline Form I"
Crystalline,0.20,0.15,0.0,0.89,0.16,0.0,Crystalline,9.61,0.84,0.0,Crystalline,2.16,0.14,0.09,Crystalline,1.87,0.15,0.13,Crystalline,Tin ethyl etiopurpurin [Crystalline Form I],"Impurity Levels by HPLC Peak 1 (photooxidized product) [1, 9]: 2.39; Impurity Levels by HPLC Peak 2 [1, 9]: 0.34; Impurity Levels by HPLC Peak 3 [1, 9]: 0.17; XRPD Result [1, 9]: Crystalline; Impurity Levels by HPLC Peak 1 (photooxidized product) [1, 10]: 4.47; Impurity Levels by HPLC Peak 2 [1, 10]: 0.11; Impurity Levels by HPLC Peak 3 [1, 10]: 0.21; XRPD Result [1, 10]: Crystalline"
Disordered FII,0.65,0.10,0.19,1.24,0.13,0.19,Disordered FII,1.98,0.09,0.27,Disordered FII,2.51,0.11,0.28,Disordered FII,1.77,0.12,0.28,Disordered FII,Tin ethyl etiopurpurin [Disordered Form II],"Impurity Levels by HPLC Peak 1 (photooxidized product) [1, 9]: 3.54; Impurity Levels by HPLC Peak 2 [1, 9]: 0.06; Impurity Levels by HPLC Peak 3 [1, 9]: 0.32; XRPD Result [1, 9]: Disordered FII; Impurity Levels by HPLC Peak 1 (photooxidized product) [1, 10]: 4.92; Impurity Levels by HPLC Peak 2 [1, 10]: 0.10; Impurity Levels by HPLC Peak 3 [1, 10]: 0.51; XRPD Result [1, 10]: Disordered FII"

# — patent US6605606B1, “Solid forms of tin ethyl etiopurpurin and processes for producing such forms” (Miravant Pharmaceuticals, Inc., priority 2000, dated 2003)
